According to US20230321187A1, “OCTOPUS-DERIVED PEPTIDE OCTOPROMYCIN HAVING ANTIBACTERIAL AND ANTI-BIOFILM ACTIVITY AGAINST ACINETOBACTER BAUMANNII” (priority 2020, published 2023):

How the values were obtained:
[1] = tested on: A. baumannii biofilm; test: microbe, parasite or virus in culture; assay type: cell-based; settings: Acinetobacter baumannii; 10 μg/mL, positive control; read-out: biofilm formation inhibition
Experimental: In order to investigate an effect of octopromycin on the biofilm of A. baumannii, analysis for biofilm formation inhibition and eradication was performed.
To examine the inhibitory effect of an octopromycin peptide on biofilm formation, A. baumannii was cultured in TSB. The bacteria were diluted to 5×10^5 CFU/mL in a TSB medium, then 97.5 mL and 90 mL of bacterial suspensions were mixed with 2.5 mL and 10 mL of peptides, respectively, to reach 50 μg/mL (MIC) and 200 μg/mL (MBC), and cultured on a 96-well plate for 24 hours. Then, the supernatant was carefully removed, and the formed biofilm was fixed with 100% methanol for 10 minutes. After methanol was removed, the biofilm was stained with 0.1% crystal violet for 30 minutes. Subsequently, the plate was washed 3 times with distilled water. Finally, the biofilm was completely dissolved in 95% ethanol and absorbance was measured at 495 nm using a microplate reader (Bio-Rad, USA).

[2] = tested on: A. baumannii; test: Time-kill kinetics (OD 595 nm); assay type: cell-based, Acinetobacter baumannii; settings: 10 μg/mL
Experimental: The MIC and MBC levels of octopromycin in A. baumannii were determined using media dilution tests and subcultures, respectively, according to the guidelines of the Clinical and Laboratory Standards Institute (CLSI, 2008 M27-A3). Several concentrations of octopromycin (0, 5, 10, 25, 50, 100, and 200 μg/mL) were tested as standard antibiotics (positive control) together with chloramphenicol (10 μg/mL, Sigma-Aldrich, USA) acting on A. baumannii growth and the MBC of chloramphenicol was confirmed according to the same procedure. The MIC was determined as the minimum concentration required to inhibit visual growth of A. baumannii. […] For analysis of time-kill kinetics, A. baumannii was cultured with octopromycin at various concentrations (0, 25, 50, 100, and 200 μg/mL) in the TSA medium at 25° C., and at different time intervals (0, 3, 6, 9, 12, 18, and 21 h), the absorbance was measured at 595 nm using a microplate reader (Bio-Rad, Saint Louis, USA) to confirm an inhibitory effect after culturing.

[3] = tested on: A. baumannii; test: Propidium iodide (PI) uptake / FDA staining membrane permeability assay (CLSM); assay type: cell-based, Acinetobacter baumannii; settings: 10 μg/mL, positive control
Experimental: Propidium iodide (PI) uptake assay was performed to evaluate an effect of octopromycin on association with the membrane permeability and apoptosis of A. baumannii. The PI was a red fluorescent nuclear and chromosome counter dye that indicated changes in cell membrane permeability, and was used to detect the presence of dead cells and simultaneously observe live cells by observing green fluorescence (FDA). A. baumannii treated with octopromycin at MIC; 50 μg/mL and MBC; 200 μg/mL levels and control cell suspensions were centrifuged (5000 rpm for 2 minutes), washed with PBS and the pellets were suspended in PBS. Subsequently, the cells were cultured with 20 μg/mL of PI (Sigma Aldrich, USA) and 8 μg/mL of FDA (Sigma Aldrich, USA) at 25° C. for 30 minutes in the dark, and finally, the remaining dye was washed with PBS. Finally, a 5 μL drop of each suspension was placed on a cover slip and fluorescence images were observed using a CLSM integrated with a scan head on an Axiovert 200M inverted microscope (Carl Zeiss, Germany).

[4] = tested on: mouse red blood cells; assay type: cell-based
Experimental: Systemic application of octopromycin as an antibiotic requires low toxicity to red blood cells. Accordingly, an in vitro hemolysis assay was performed using mouse red blood cells […].
The hemolytic activity of the peptide was evaluated using mouse red blood cells (RBC). The RBCs were washed 3 times with phosphate buffered saline (PBS) until the supernatant was clear. Different concentrations of octopromycin (0, 25, 50, 100, 200, 300 μg/mL) were added to 1.5 ml Eppendorf tubes. The RBCs were added at a final concentration of 8% (v/v) in a total volume of 500 μL. The RBCs were incubated for 1 hour, and then centrifuged for 10 minutes and the absorbance of the supernatant was measured at 414 nm.
Percent hemolysis was calculated using Equation:
Hemolysis (%)=(A414 of Peptide−A414 of PBS)/(A414 of Triton−A414 of PBS)×100

## O=C(N[C@H](CO)[C@H](O)c1ccc([N+](=O)[O-])cc1)C(Cl)Cl [chloramphenicol, reference compound]
[1]
  inhibition at 10 µg/mL: 85.9%
[2]
  growth inhibition (time-kill kinetics): growth inhibition was similar to that of 50 μg/mL of octopromycin
[3]
  membrane permeability (PI/FDA staining): high membrane permeability

## Triton X-100
[4]
  hemolysis: 100%
